Experimental data as given in patent US7262218B2, “Forms of pravastatin sodium” (Teva Gyogyszergyar Zartkoruen Mukodo Reszvenytarsasag, priority 1999, dated 2007).

Key:
[1] = Solid-form stability on exposure at 100% relative humidity (X-ray diffraction); type: physicochemical; conditions: one week
Excerpt: The water uptake at 80% relative humidity after 1 week was up to about 15%. After exposure at 100% relative humidity, all the forms of pravastatin sodium transform to Form C with about […].
Pravastatin sodium was exposed at 100% relative humidity for one week.

serum cholesterol levels = conditions: human subjects with normal hepatic function and moderate body weight; daily dosages of 10 mg or more; cited from earlier work
[2] = Solid-form stability on storage at 40-80% relative humidity for two weeks (X-ray diffraction); type: physicochemical; conditions: two weeks at relative humidity of between 40-80%
Protocol: Pravastatin sodium Form G may be prepared by storing pravastatin sodium Form F for 2 weeks at a relative humidity of about 40 to about 80%. […] The resulting solid was analyzed by X-ray diffraction without further treatment.

[3] = Solid-form stability on drying under vacuum (X-ray diffraction); type: physicochemical
Protocol: Most of these forms have a jelly appearance. By drying these samples at 60° C., vacuum overnight, the powdered Form D is obtained.
Pravastatin sodium (7 g) was dissolved in deionized water (13 ml) and diluted with acetone (14.3 ml). The resulting solution was stirred over charcoal (0.07 g.) to decolorize. The charcoal was removed by filtration and rinsed with a 10:1 mixture of acetone:water (15.7 ml). The combined pravastatin sodium solution and rinsate was then diluted with acetone (42.8 ml) and cooled to −10° C. At the reduced temperature, more acetone (143 ml) was slowly added over one half hour. The solution was then maintained at −10° C. for three hours during which time pravastatin sodium crystallized. The crystals were then isolated by filtration, washed with 1% water in acetone that had been pre-cooled to −10° C. (28 ml) and then again with anhydrous acetone (28 ml). The crystals were then dried under vacuum at 50° C. […]
Pravastatin crystals were filtered and washed with 160 L acetone containing 2% water and cooled to between 2-5° C. Then the wet cake was washed once more with 160 L of pure acetone. The product was dried under vacuum by gradual heating to 60° C. The crystals were identified by X-ray diffraction as Form L. The water content was 16.8% and the acetone content was 0%. After prolonged drying the water content was reduced to 10.7%. A mixture of Form L and D was identified.

CC[C@H](C)C(=O)O[C@H]1C[C@H](O)C=C2C=C[C@H](C)C(CC[C@@H](O)C[C@@H](O)CC(=O)O)[C@H]21 (relative stereo) [Pravastatin sodium, [1S-[1α(β*,δ*)2α,6α,8β(R*),8aα]]-1,2,6,7,8,8a-hexahydro-β,δ,6-trihydroxy-2-methyl-8-(2-methyl-1-oxobutoxy)-1-naphthalene-heptanoic acid]
crystal form after exposure at 100% relative humidity [1]: found to be Form C | effect on serum cholesterol levels (serum cholesterol levels): reduction in serum cholesterol levels

CC[C@H](C)C(=O)O[C@H]1C[C@H](O)C=C2C=C[C@H](C)[C@H](CC[C@@H](O)C[C@@H](O)CC(=O)O)[C@H]21 [Form F, pravastatin sodium]
crystal form after storage at humidity [2]: Form G is obtained

CC[C@H](C)C(=O)O[C@H]1C[C@H](O)C=C2C=C[C@H](C)[C@H](CC[C@@H](O)C[C@@H](O)CC(=O)O)[C@H]21 [Form H, pravastatin sodium]
crystal form after drying under vacuum overnight [3]: converted to Form D

CC[C@H](C)C(=O)O[C@H]1C[C@H](O)C=C2C=C[C@H](C)[C@H](CC[C@@H](O)C[C@@H](O)CC(=O)O)[C@H]21 [Form I, pravastatin sodium]
crystal form after drying under vacuum overnight [3]: transformed to Form D

CC[C@H](C)C(=O)O[C@H]1C[C@H](O)C=C2C=C[C@H](C)[C@H](CC[C@@H](O)C[C@@H](O)CC(=O)O)[C@H]21 [Form J, pravastatin sodium]
crystal form after drying under vacuum overnight [3]: transformed to Form D

CC[C@H](C)C(=O)O[C@H]1C[C@H](O)C=C2C=C[C@H](C)C(CC[C@@H](O)C[C@@H](O)CC(=O)O)[C@H]21 (some centres unmarked) [Form L, pravastatin sodium]
crystal form after drying under vacuum at 50° C. ([3]; dried under vacuum at 50° C. (Example 6)): after drying the crystals were Form D | crystal form after further drying under vacuum ([3]; vacuum, gradual heating to 60° C., further drying to 2.5% water content (Example 23)): transformed to pure Form D
